Data as given in patent publication US20250170132A1, “SALTS AND POLYMORPHIC FORMS OF MENIN INHIBITORS AND PHARMACEUTICAL COMPOSITIONS THEREOF” (Syndax Pharmaceuticals, Inc., priority 2023, published 2025).

How the values were obtained:
[1] = Dynamic vapor sorption (DVS) at 25° C. and RH up to 90%; format: physicochemical
Protocol: FIG. 4 depicts a DVS of Compound A monocitrate monohydrate Form A salt at 25° C. and RH up to 90%.

[2] = Slurry and solvent evaporation polymorph experiments of Compound A citrate salt (Table 9); format: physicochemical
Protocol: Based on the approximate solubility data of Compound A citrate salt, 18 polymorph experiments were started at RT with stirring (Table 9). Wet cakes from the slurry experiments were analyzed after 5 days of stirring. Wet cake XRPD patterns were checked and materials showing no pattern change were heated from RT to 50° C.
Procedure • 1) Slurry at RT: ˜35 mg citrate salt was slurried in different solvents in 4 mL vials using a magnetic stirrer at RT. The solids in slurry were characterized by XRPD after 3-5 days. • 2) Slurry at 50° C.: Slurries with no change in wet cake XRPD pattern when compared to starting material were heated from RT to 50° C. Samples were analyzed after 2-3 days of stirring.
Wet cake samples were isolated and kept at 25° C. for 2 h for drying. After drying, samples were analyzed by XRPD.

[3] = Plasma pharmacokinetics of compound A after twice daily dosing; format: in vivo
[4] = Form C screening experiments; format: physicochemical; settings: Exp. 16: 40 mg in water 0.1 mL, RT; CL → HSL
[5] = Form C characterization and relative stability of the forms; format: physicochemical
Source text: Moreover, HNMR studies validated a 1:1 stoichiometry between the freebase and acid.

[6] = Form C water activity study in MeCN/water; format: physicochemical
Protocol: Water activity study in MeCN/water: A water activity investigation was conducted utilizing a MeCN/water system. […] Subsequently, Form A seeds were introduced into vials with water activities between 0.01 and 0.6. […] The solids were isolated and subjected to vacuum drying at room temperature overnight.

[7] = Polymorph screening of Compound A citrate salt, form conversion (XRPD, DSC/TGA, DVS); format: physicochemical; settings: drying of wet cake (Form B); presence of water (Form C)
[8] = Form C slurry conditioning in EtOH/water (95/5); format: physicochemical
[9] = about 163 mg twice daily in combination with a CYP3A4 inhibitor (e.g., a strong CYP3A4 inhibitor)

CCN(C(=O)c1cc(F)ccc1Oc1cncnc1N1CC2(CCN(C[C@H]3CC[C@H](NS(=O)(=O)CC)CC3)CC2)C1)C(C)C.O.O=C(O)CC(O)(CC(=O)O)C(=O)O
water absorbed (DVS) ([1]; 25° C., from 0% to 90% relative humidity): about 1.9% | hygroscopicity ([1]; DVS at 25° C. and RH up to 90%): not hygroscopic | Form ([2]; 1,4-dioxane/H2O (7:3), solvent evaporation): Form A (FIG. 19) | Form ([2]; Propanol/H2O (7:3), solvent evaporation): Form A (FIG. 19) | Form ([2]; THF/H2O (7:3), solvent evaporation): Amorphous (FIG. 19) | Form ([2]; slurry, 1,4-dioxane/H2O (7:3)): Form A (FIG. 18) | Form ([2]; slurry, 2-Me-THF, starting material a 1:1 mixture (footnote)): Form A (FIG. 18) | Form ([2]; slurry, Acetone/H2O (7:3)): Form A (FIG. 18) | Form ([2]; slurry, DCM): Form A (FIG. 17) | Form ([2]; slurry, EtOAc): Form A (FIG. 17) | Form ([2]; slurry, H2O): Form A (FIG. 18) | Form ([2]; slurry, IPAc): Form A (FIG. 18) | Form ([2]; slurry, MEK): Form A (FIG. 17) | Form ([2]; slurry, MTBE): Form A (FIG. 18) | Form ([2]; slurry, MeCN): Form C (FIG. 14) | Form ([2]; slurry, MeOH or EtOH, after air dry): dry→Form A (FIG. 16) | Form ([2]; slurry, MeOH or EtOH, wet cake): Form B (Wet cake)→ air | Form ([2]; slurry, Propanol/H2O (7:3)): Form A (FIG. 18) | Form ([2]; slurry, THF): Form A (FIG. 17) | Form ([2]; slurry, Toluene): Form A (FIG. 17) | area under plasma concentration versus time curve from time 0 to 12 hours (AUC(0-12h)) of compound A [3, 9]: about 22610 ng·h/mL | maximum plasma concentration (Cmax) of compound A [3, 9]: about 3220 ng/mL | area under plasma concentration versus time curve from time 0 to 12 hours (AUC(0-12h)) of compound A ([3]; about 276 mg twice daily): about 10150 ng·h/mL | maximum plasma concentration (Cmax) of compound A ([3]; about 276 mg twice daily): about 2052 ng/mL

CCN(C(=O)c1cc(F)ccc1Oc1cncnc1N1CC2(CCN(CC3CCC(NS(=O)(=O)CC)CC3)CC2)C1)C(C)C.O=C(O)CC(O)(CC(=O)O)C(=O)O (stereo not shown) [Form C]
Crystal Form [4]: Form A | XRPD profile after heating ([5]; heating to 110° C.): aligned with that of Form C | Solid recovered from water ([5]; overnight stirring in water at RT): Form A was recrystallized | XRPD pattern after drying ([5]; post-vacuum drying at room temperature): remained unchanged | Form conversion ([5]; water and EtOH/water (95/5 v/v)): transitions to Form A | XRPD ([6]; Exp. 1: Form C 40 mg, MeCN/water aw 0.01, RT, no Form A seed): Form C | XRPD ([6]; Exp. 1a: MeCN/water aw 0.01, RT, Form A seed 20 mg added): Form C | XRPD ([6]; Exp. 2: Form C 40 mg, MeCN/water aw 0.22, RT, no Form A seed): Form C | XRPD ([6]; Exp. 2a: MeCN/water aw 0.22, RT, Form A seed 20 mg added): Form C | XRPD ([6]; Exp. 3: Form C 40 mg, MeCN/water aw 0.41, RT, no Form A seed): Form C | XRPD ([6]; Exp. 3a: MeCN/water aw 0.41, RT, Form A seed 20 mg added): Form C | XRPD ([6]; Exp. 4: Form C 40 mg, MeCN/water aw 0.59, RT, no Form A seed): Form C | XRPD ([6]; Exp. 4a: MeCN/water aw 0.59, RT, Form A seed 20 mg added): Form C | Form (XRPD) after addition of Form A seeds ([6]; MeCN/water, water activities 0.01 to 0.6, overnight stirring): match with the Form C | Form stability (XRPD of wet cake) ([6]; MeCN/water, water activities 0.01 to 0.8, RT, overnight stirring): remained stable | Form (XRPD) of isolated vacuum-dried solids ([6]; water activity levels of 0.01-0.6): consistent with Form C | Form (XRPD) of isolated vacuum-dried solids ([6]; water activity of 0.8): combination of Form C and Form A | Form conversion ([2]; dried solid, upon exposure to humidity): converts to Form A upon exposure to humidity | stability of polymorphic form / conversion [7]: unstable and converts to Form A in presence of water | Form conversion on slurry conditioning ([8]; EtOH/water (95/5), overnight stirring): converted to Form A | XRPD ([8]; Exp. 1: Form C 40 mg, EtOH/water (95/5) 0.2, RT, no Form A seed, slurry overnight): Form A | XRPD ([8]; Exp. 2: Form C, EtOH/water (95/5), RT, Form A seed 20 mg): Form A
